Measured values as given in patent publication US20090082314A1, “Targeting Prodrugs for the Treatment of Gastrointestinal Diseases” (The Provost Fellows and Scholars of the College of the, priority 2007, published 2009).

Tests used:
[1] = rat intestinal perfusate; cited from earlier work
[2] = after 24 h at pH 7 (45° C.); cited from earlier work
[3] = Intramolecular lactamization (cyclization) kinetics of amino prodrugs in aqueous solution, HPLC; assay type: physicochemical; details: 37° C., pH not given, read-out: calculated half-life of lactamization (T1/2=0.693/kobs) (converted)
Description: Release of steroid in vivo from the prodrugs hinges upon the cyclization of the amino steroid product of azo-reductase activity. The cyclization rates of the amino derivatives of cortisone A and B were monitored in aqueous solution at various pH values and at 37° C. by measuring remaining compound by HPLC along with the evolution of cortisone.
The first order rate constant for disappearance can be obtained from a plot of the natural log of remaining ester versus time. The half-life can be calculated (T1/2=0.693/kobs).

[4] = test system: DSS-induced colitis mice; experiment: Drug efficacy in DSS-induced colitis mice (body weight loss, DAI, colon length); assay type: in vivo, BALB/c mice; details: for body weight loss versus vehicle only controls / severity of disease (DAI score) versus vehicle alone / colon shortening versus vehicle alone: 5 mg/Kg oral twice a day, 5% DSS; for body weight loss versus vehicle only controls: FIG. 15, one-way ANOVA with Tukey post test; for severity of disease (DAI score) versus vehicle alone: FIG. 16, one-way ANOVA with Tukey post test; for colon shortening versus vehicle alone: FIG. 17, one-way ANOVA with Tukey post test
Description: BALB/c strain mice were from the Bioresources Unit (Trinity College Dublin). Mice were housed in individually ventilated and filtered cages under positive pressure (Tecniplast, Nothants, UK). Food and water were supplied ad libitum. All animal experiments were performed in compliance with Irish Department of Health and Children regulations and approved by the Trinity College Bioresources ethical review board.
All in vivo experiments were performed with six mice per group. […] Colitis scores were analyzed by Mann-Whitney test. P values <0.05 were considered significant. Results on the DIA, C/B and T/B MPO were expressed as means±S.E.
DSS ([…]; MP Biomedicals, OH) was dissolved in the drinking water of the mice. Fresh DSS solution was provided every second day. BALB/c mice were exposed to 5% DSS for six days. The mice were checked every day for morbidity and weight recorded. Induction of colitis was determined by weight loss, fecal blood and, upon autopsy, length of colon. Blood in feces was detected using a Hemdetect occult blood detection kit (Dipro, Austria).
To quantify induction of colitis, a disease activity index (DAI) was determined based on previous studies of DSS-induced colitis (Cooper 1993). DAI was calculated for each mouse daily based on body weight loss, occult blood and stool consistency/diarrhea. A score of […] was given for each parameter, with a maximum DAI score of 12. Score 0, No weight loss, normal stool, no blood; Score 1, 1-3% weight loss; Score 2, 3-6% weight loss, loose stool, blood visible in stool; Score 3, 6-9% weight loss; Score 4, […]. Loose stool was defined as the formation of a stool that readily becomes paste upon handling. Diarrhea was defined as no stool formation. Gross bleeding was defined as fresh blood on fur around the anus with extensive blood in the stool,
At autopsy the length of the colon was measured and a 1 cm section of colon was fixed in 10% formaldehyde-saline. H&E-stained sections were grading based on a scoring system modified from a previous study (Siegmund 2001). Histology scoring was performed in a blinded fashion. A combined score of inflammatory cell infiltration and tissue damage was determined as follows: Cell infiltration: Score 0, Occasional inflammatory cells in the LP; 1, Increased infiltrate in the LP predominantly at the base of crypts; 2, Confluence of inflammatory infiltrate extending into the mucosa; 3, Trans-mural extension of infiltrate. Tissue Damage Score 0, No mucosal damage; 1, Partial (up to 50%) loss of crypts in large areas; 2, Partial to total 50-100% loss of crypts in large areas, epithelium intact; 3, Total loss of crypts in large areas and epithelium lost.
The DSS induced colitis mice weighting about 18-20 grams were allowed 5% DSS water ad libitum and 100 μL of prednisolone and prodrug 2 in 1% solution cremophor and ethanol in water suspension (equivalent to 5 mg of prednisolone per Kg or mouse body weight) was orally administrated, twice a day (every twelve hours) to the colitis mice. Six days after the prednisolone and prodrugs treatments, the mice were sacrificed by cervical dislocation. The distal colon segment and the thymus were removed and washed to remove contents of the colon.
One centimetre of the distal colon segment and the fresh weight of the thymus were measured to obtain the ratios of distal colon weight and thymus weight to body weight (C/B and T/B respectively). The damage of the colon specimens were scored as describe in materials and methods. The distal segments were frozen by liquid nitrogen kept at −80° C. until assayed for myeloperoxidase activity (MPO).
Anti-inflammatory effects were studied by comparison of the distal colon length between healthy mice, untreated mice, prednisolone treated mice and prodrug treated mice. IBD causes shortering of the colon. […]

[5] = test system: thymus; experiment: Systemic side effects: thymus weight to body weight ratio in DSS-induced colitis mice; assay type: in vivo, BALB/c mice; details: for T/BW ratio (thymus weight:body weight) versus vehicle-treated mice: 5 mg/Kg oral twice a day, 5% DSS, FIG. 18, one-way ANOVA with Tukey post test
Description: The DSS induced colitis mice weighting about 18-20 grams were allowed 5% DSS water ad libitum and 100 μL of prednisolone and prodrug 2 in 1% solution cremophor and ethanol in water suspension (equivalent to 5 mg of prednisolone per Kg or mouse body weight) was orally administrated, twice a day (every twelve hours) to the colitis mice. Six days after the prednisolone and prodrugs treatments, the mice were sacrificed by cervical dislocation. The distal colon segment and the thymus were removed and washed to remove contents of the colon. One centimetre of the distal colon segment and the fresh weight of the thymus were measured to obtain the ratios of distal colon weight and thymus weight to body weight (C/B and T/B respectively). The damage of the colon specimens were scored as describe in materials and methods. The distal segments were frozen by liquid nitrogen kept at −80° C. until assayed for myeloperoxidase activity (MPO). Systemic side effects were study by comparison of the thymus weight and body weight ratio (Hideki Yano 2002) between health mice, untreated mice, prednisolone treated mice and prodrug treated mice, due to the fact that an increase on the concentration of steroid in the bloodstream provokes suppression on the activity of the thymus and the consequent reduction of its weight.

[6] = neutrality, 39° C.; cited from earlier work
[7] = 5 mg/Kg, Student's t-test, original analysis

SMILES	half-life [3]	body weight loss versus vehicle only controls [4]	severity of disease (DAI score) versus vehicle alone [4]	colon shortening versus vehicle alone [4]	T/BW ratio (thymus weight:body weight) versus vehicle-treated mice [5]	further results
C[C@]12CCC(=O)C=C1CC[C@@H]1[C@@H]2[C@@H](O)C[C@@]2(C)[C@H]1CC[C@]2(O)C(=O)COC(=O)CCC(=O)O [hydrocortisone-21-succinate]						first-order rate constant for hydrolysis [1]: 0.003 min⁻¹; disappearance [2]: less than 5%
CC12CCC(=O)C=C1CCC1C2C(O)CC2(C)C1CCC2(O)C(=O)COC(=O)CCc1ccccc1N (stereo not drawn) [prodrug B]	1.4 h					
C[C@]12C=CC(=O)C=C1CC[C@@H]1[C@@H]2[C@@H](O)C[C@@]2(C)[C@H]1CC[C@]2(O)C(=O)CO [Prednisolone]		weight loss was decreased	significantly reduced	significantly less shortening	significant reduction in T/BW ratio	thymus:BW ratio versus Untreated mice [5, 7]: significant reduction in thymus:BW ratio
COC(=O)CCc1ccccc1N [methyl 3-(2-aminophenyl)propionate]						apparent first-order rate constant of spontaneous cyclization [6]: 0.0002 s⁻¹
CC12CCC(=O)C=C1CCC1C2C(O)CC2(C)C1CCC2(O)C(=O)COC(=O)Cc1ccccc1N (stereo not drawn) [prodrug A]	2.2 h					
CC12C=CC(=O)C=C1CCC1C2C(O)CC2(C)C1CCC2(O)C(=O)COC(=O)CCc1ccccc1/N=N/c1ccc(O)c(C(=O)O)c1 (stereo not drawn) [Mutual Prodrug 2, 5-(2-{2[2-(11,17-dihydroxy-10,13-dimethyl-10,13-dimethyl-3-oxo-6,7,8,9,10,11,12,13,14,15,16,17-dodecahydro-3H-cyclopenta[a]phenanthrene-17-yl)-2-oxo-ethoxycarbonyl]ethyl}-phenylazo}-2-hydroxy-benzoic acid]		weight loss was decreased	significantly reduced	significantly less shortening	not statistically different	colon length [4, 7]: significantly longer colon than the PRED
